# Experiments:
# [1] = test system: HTelo (F21T-K / F21T-Na) (DNA, G4) GGGTTAGGGTTAGGGTTAGGG; experiment: FRET melting; settings: 10 mM LiCac, pH 7.3, 0.2 μM DNA, 2 μM compound (1:10)
# [2] = test system: cMyc (DNA, G4) TGAGGGTGGGTAGGGTGGGTAA; experiment: fluorimetric titration (ligand emission); settings: 100 mM KCl; 10 mM Tris, pH 7.4; 1:1 binding model
# [3] = test system: F21T-RNA (RNA, G4) GGGUUAGGGUUAGGGUUAGGG; experiment: FRET melting; settings: 100 mM KCl; 10 mM LiCac, pH 7.3; 0.2 μM DNA, 2 μM compound (1:10)
# [4] = test system: ds26 (DNA, duplex) CAATCGGATCGAATTCGATCCGATTG; experiment: fluorimetric titration (ligand emission); settings: 100 mM KCl; 10 mM Tris, pH 7.4; 1:1 binding model
# [5] = test system: TBA (labelled) (DNA, G4) GGTTGGTGTGGTTGG; experiment: FRET melting; settings: 100 mM KCl; 10 mM LiCac, pH 7.3; 0.2 μM DNA, 1 μM compound (1:5)
# [6] = test system: HTelo (HTelo22) (DNA, G4) AGGGTTAGGGTTAGGGTTAGGG; experiment: fluorimetric titration (ligand emission); settings: 100 mM KCl; 10 mM Tris, pH 7.4; 1:1 binding model
# [7] = test system: 26TTA (labelled) (DNA, G4) TTAGGGTTAGGGTTAGGGTTAGGGTT; experiment: FRET melting; settings: 100 mM KCl; 10 mM LiCac, pH 7.3; 0.2 μM DNA, 2 μM compound (1:10)
# [8] = test system: Bcl2 (DNA, G4) GGGCGCGGGAGGAATTGGGCGGG; experiment: fluorimetric titration (ligand emission); settings: 100 mM KCl; 10 mM Tris, pH 7.4; 1:1 binding model
# [9] = test system: Kit2 (labelled) (DNA, G4) CGGGCGGGCGCGAGGGAGGGG; experiment: FRET melting; settings: 100 mM KCl; 10 mM LiCac, pH 7.3; 0.2 μM DNA, 2 μM compound (1:10)
# [10] = test system: Kit1 (labelled) (DNA, G4) AGGGAGGGCGCTGGGAGGAGGG; experiment: FRET melting; settings: 100 mM KCl; 10 mM LiCac, pH 7.3; 0.2 μM DNA, 2 μM compound (1:10)
# [11] = test system: Kit1 (DNA, G4) AGGGAGGGCGCTGGGAGGAGGG; experiment: fluorimetric titration (ligand emission); settings: 100 mM KCl; 10 mM Tris, pH 7.4; 1:1 binding model
# [12] = test system: ds26 (labelled) (DNA, duplex) CAATCGGATCGAATTCGATCCGATTG; experiment: FRET melting; settings: 100 mM KCl; 10 mM LiCac, pH 7.3; 0.2 μM DNA, 2 μM compound (1:10)
# [13] = test system: Bcl2 (labelled) (DNA, G4) GGGCGCGGGAGGAATTGGGCGGG; experiment: FRET melting; settings: 100 mM KCl; 10 mM LiCac, pH 7.3; 0.2 μM DNA, 2 μM compound (1:10)
# [14] = test system: cMyc (DNA, G4) TGAGGGTGGGTAGGGTGGGTAA; experiment: thiazole orange displacement (FID); settings: 100 mM KCl; 10 mM LiCaco, pH 7.2; 1 μM DNA, 2 μM thiazole orange displaced
# [15] = test system: ds26 (DNA, duplex) CAATCGGATCGAATTCGATCCGATTG; experiment: thiazole orange displacement (FID); settings: 100 mM KCl; 10 mM LiCaco, pH 7.2; 1 μM DNA, 3 μM thiazole orange displaced
# [16] = test system: HTelo (HTelo22) (DNA, G4) AGGGTTAGGGTTAGGGTTAGGG; experiment: thiazole orange displacement (FID); settings: 100 mM KCl; 10 mM LiCaco, pH 7.2; 1 μM DNA, 2 μM thiazole orange displaced
# [17] = test system: 24TTG (labelled) (DNA, G4) TTGGGTTAGGGTTAGGGTTAGGGA; experiment: FRET melting; settings: 100 mM KCl; 10 mM LiCac, pH 7.3; 0.2 μM DNA, 2 μM compound (1:10)
# [18] = test system: Kit1 (DNA, G4) AGGGAGGGCGCTGGGAGGAGGG; experiment: thiazole orange displacement (FID); settings: 100 mM KCl; 10 mM LiCaco, pH 7.2; 1 μM DNA, 2 μM thiazole orange displaced
ΔTm ([1]; 100 mM KCl) [°C],ΔTm ([1]; 100 mM NaCl) [°C],Ka [2],ΔTm [3] [°C],Ka [4],ΔTm [5] [°C],Ka [6],ΔTm [7] [°C],Ka [8],ΔTm [9] [°C],ΔTm [10] [°C],Ka [11],binding [12],ΔTm [13] [°C],DC50 [14] [µM],DC50 [15] [µM],DC50 [16] [µM],ΔTm [17] [°C],DC50 [18] [µM],Structure (SMILES)
> 35,24.8,4.5(0.8)x10^5 M^-1,> 26.5,3.5(0.5)x10^5 M^-1,19.4,> 10^7 M^-1,< 12,5.4(0.5)x10^5 M^-1,27.9,> 35,4.0(0.4)x10^5 M^-1,no,30.5,2.84,> 5,> 5,< 12,3.00,C[N+](C)(C)CCCOc1ccc(N(c2ccc(OCCC[N+](C)(C)C)cc2)c2ccc(-c3ccc4c(c3)C3(c5ccccc5-c5ccccc53)c3cc(-c5ccc(N(c6ccc(OCCC[N+](C)(C)C)cc6)c6ccc(OCCC[N+](C)(C)C)cc6)cc5)ccc3-4)cc2)cc1
–,–,5.6(0.1)x10^4 M^-1,–,< 10^3 M^-1,–,7.2(2)x10^4 M^-1,–,5.5(0.3)x10^4 M^-1,–,–,< 10^3 M^-1,–,–,> 5,3.52,> 5,–,> 5,O=S(=O)(O)CCCCOc1ccc(N(c2ccc(OCCCCS(=O)(=O)O)cc2)c2ccc(-c3ccc4c(c3)C3(c5ccccc5-c5ccccc53)c3cc(-c5ccc(N(c6ccc(OCCCCS(=O)(=O)O)cc6)c6ccc(OCCCCS(=O)(=O)O)cc6)cc5)ccc3-4)cc2)cc1
